What was measured:
[1] = target: T1, human Focal Adhesion Kinase (FAK) (Homo sapiens, UniProt Q05397); experiment: FAK3 Kinase Inhibition Assay (in vitro enzyme assay); assay type: biochemical; conditions: read-out: FAK inhibitory activity IC50
T1 construct: FAK (full length human cDNA described by Andre et al); made in house; host or cells: Sf21 insect cells, baculovirus (pFastbac 1); cleared cell lysate used as enzyme stock
Source text: FAK3 Kinase Inhibition Assay
This assay determines the ability of a test compound to inhibit tyrosine kinase activity of human Focal Adhesion Kinase (FAK).
Active FAK protein has been previously expressed in a baculovirus system using a similar N-terminal 6-histidine tag (Protein Expression And Purification, 1996, 7: 12–18). The human FAK cDNA was cloned into the baculovirus transplacement vector, pFastbac 1 (Life Technologies), and the recombinant construct was co-transfected into insect cells (for example Spodoptera frugiperda 21(Sf21)) with viral DNA to prepare recombinant baculovirus (details of the methods for the assembly of recombinant DNA molecules and the preparation and use of recominant baculovirus can be found in standard texts for example Sambrook et al, 1989, Molecular cloning-A Laboratory Manual, 2nd edition, Cold Spring Harbour Laboratory Press and O'Reilly et al, 1992, Baculovirus Expression Vectors-A Laboratory Manual, W. H. Freeman and Co, New York. Details specific to the use of the pFastbac (‘Bac to Bac’) system are provided in Anderson et al., 1995, FOCUS (Life Technologies Bulletin Magazine), 17, p53.)
For expression of biologically active human FAK protein, Sf21 cells were infected with plaque-pure FAK recombinant virus at a multiplicity of infection of 3 and harvested 48 hours later. […]

[2] = target: T2, CDK4/Cyclin D1 (Homo sapiens, UniProt P11802); experiment: CDK4 Inhibition Assay (Scintillation Proximity Assay, GST-Retinoblastoma substrate); assay type: biochemical; conditions: in vitro kinase assay, 0.2 μM ATP; read-out: CDK4 inhibitory activity IC50
T2 construct: made in house; host or cells: Sf21 insect cells, baculovirus co-infection (pVL1393)
Procedure: The compounds were tested in an in vitro kinase assay in 96 well format using Scintillation Proximity Assay (SPA-obtained from Amersham) for measuring incorporation of [γ-33-P]-Adenosine Triphosphate into a test substrate (GST-Retinoblastoma). In each well was placed the compound to be tested (diluted in DMSO and water to correct concentrations) and in control wells either p16 as an inhibitor control or DMSO as a positive control.
Approximately 0.5 μl of CDK4/Cyclin D1 partially-purified enzyme (amount dependent on enzyme activity) diluted in 25 μl incubation buffer was added to each well then 20 μl of GST-Rb/ATP/ATP33 mixture (containing 0.5 μg GST-Rb and 0.2 μM ATP and 0.14 μCi [γ-33-P]-Adenosine Triphosphate), and the resulting mixture shaken gently, then incubated at room temperature for 60 minutes.
To each well was then added 150 μL stop solution containing (0.8 mg/well of Protein A-PVT SPA bead (Amersham)), 20 pM/well of Anti-Glutathione Transferase, Rabbit IgG (obtained from Molecular Probes), 61 mM EDTA and 50 mM HEPES pH 7.5 containing 0.05% sodium azide.
The plates were sealed with Topseal-S plate sealers, left for two hours then spun at 2500 rpm, 1124 xg., for 5 minutes. The plates were read on a Topcount for 30 seconds per well. […]

T1 sequence (Q05397 whole entry): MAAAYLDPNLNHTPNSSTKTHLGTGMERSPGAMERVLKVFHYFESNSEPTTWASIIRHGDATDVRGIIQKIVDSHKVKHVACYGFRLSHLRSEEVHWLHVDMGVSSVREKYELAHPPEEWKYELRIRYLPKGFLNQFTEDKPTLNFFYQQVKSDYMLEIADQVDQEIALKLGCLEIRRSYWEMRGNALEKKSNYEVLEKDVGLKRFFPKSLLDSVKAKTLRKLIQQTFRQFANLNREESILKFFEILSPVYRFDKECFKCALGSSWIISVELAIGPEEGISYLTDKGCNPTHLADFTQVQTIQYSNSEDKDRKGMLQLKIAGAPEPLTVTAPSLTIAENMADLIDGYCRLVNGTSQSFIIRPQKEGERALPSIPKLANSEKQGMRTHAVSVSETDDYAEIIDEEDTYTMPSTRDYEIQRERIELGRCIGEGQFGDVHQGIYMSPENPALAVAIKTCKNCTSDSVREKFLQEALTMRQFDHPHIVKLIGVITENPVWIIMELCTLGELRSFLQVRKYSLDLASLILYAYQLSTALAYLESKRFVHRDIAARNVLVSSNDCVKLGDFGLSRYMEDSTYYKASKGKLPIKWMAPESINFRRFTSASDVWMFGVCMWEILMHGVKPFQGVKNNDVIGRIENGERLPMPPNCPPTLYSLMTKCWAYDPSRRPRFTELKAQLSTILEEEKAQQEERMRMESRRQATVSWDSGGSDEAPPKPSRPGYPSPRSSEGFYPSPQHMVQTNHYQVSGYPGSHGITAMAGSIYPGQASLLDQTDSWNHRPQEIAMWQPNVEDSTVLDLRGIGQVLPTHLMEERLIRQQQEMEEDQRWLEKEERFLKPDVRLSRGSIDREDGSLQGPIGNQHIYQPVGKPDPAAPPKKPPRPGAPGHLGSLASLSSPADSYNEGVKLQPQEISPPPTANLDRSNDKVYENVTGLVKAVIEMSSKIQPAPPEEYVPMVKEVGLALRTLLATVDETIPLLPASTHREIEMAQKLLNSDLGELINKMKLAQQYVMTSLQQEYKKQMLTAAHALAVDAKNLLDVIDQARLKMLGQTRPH
T2 sequence (P11802 whole entry): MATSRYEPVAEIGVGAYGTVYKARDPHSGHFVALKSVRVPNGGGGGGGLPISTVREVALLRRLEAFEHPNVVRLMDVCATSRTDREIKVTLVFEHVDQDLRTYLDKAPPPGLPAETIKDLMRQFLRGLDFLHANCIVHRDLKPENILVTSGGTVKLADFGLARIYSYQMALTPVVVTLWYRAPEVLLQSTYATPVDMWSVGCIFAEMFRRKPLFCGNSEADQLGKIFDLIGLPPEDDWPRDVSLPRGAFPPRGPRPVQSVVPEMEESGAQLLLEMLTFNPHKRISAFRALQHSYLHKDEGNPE
T2 sequence (P24385 whole entry partner): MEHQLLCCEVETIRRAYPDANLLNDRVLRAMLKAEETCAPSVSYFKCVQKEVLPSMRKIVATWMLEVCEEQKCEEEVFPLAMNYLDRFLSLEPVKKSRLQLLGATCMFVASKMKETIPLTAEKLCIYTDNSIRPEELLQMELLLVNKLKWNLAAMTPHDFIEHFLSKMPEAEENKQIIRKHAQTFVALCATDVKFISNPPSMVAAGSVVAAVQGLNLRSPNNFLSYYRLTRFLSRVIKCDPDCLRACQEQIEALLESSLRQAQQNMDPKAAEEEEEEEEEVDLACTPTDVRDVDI

Structure (SMILES) | IC50 [1] [nM] | IC50 [2] [nM]
CCN(CC)CCOc1ccc(Nc2ncc(Br)c(Nc3ccccc3)n2)cc1 [Example 25] | 218 | 
OCCOCc1ccc(Nc2ncc(Br)c(Nc3ccccc3)n2)cc1 [Example 31, 4-Anilino-5-bromo-2-[4-(2-hydroxyethoxy)methylanilino]pyrimidine] |  | 679
